In test [1] the target is T1, KCC2 (Homo sapiens, UniProt Q9H2X9).
T1 construct: expressed in transfected cells; host or cells: HEK-293 (ATCC CRL-1573), Lipofectamine 2000, used 48-72 h after transfection
T1 sequence (Q9H2X9 1-1116 isoform Q9H2X9-2): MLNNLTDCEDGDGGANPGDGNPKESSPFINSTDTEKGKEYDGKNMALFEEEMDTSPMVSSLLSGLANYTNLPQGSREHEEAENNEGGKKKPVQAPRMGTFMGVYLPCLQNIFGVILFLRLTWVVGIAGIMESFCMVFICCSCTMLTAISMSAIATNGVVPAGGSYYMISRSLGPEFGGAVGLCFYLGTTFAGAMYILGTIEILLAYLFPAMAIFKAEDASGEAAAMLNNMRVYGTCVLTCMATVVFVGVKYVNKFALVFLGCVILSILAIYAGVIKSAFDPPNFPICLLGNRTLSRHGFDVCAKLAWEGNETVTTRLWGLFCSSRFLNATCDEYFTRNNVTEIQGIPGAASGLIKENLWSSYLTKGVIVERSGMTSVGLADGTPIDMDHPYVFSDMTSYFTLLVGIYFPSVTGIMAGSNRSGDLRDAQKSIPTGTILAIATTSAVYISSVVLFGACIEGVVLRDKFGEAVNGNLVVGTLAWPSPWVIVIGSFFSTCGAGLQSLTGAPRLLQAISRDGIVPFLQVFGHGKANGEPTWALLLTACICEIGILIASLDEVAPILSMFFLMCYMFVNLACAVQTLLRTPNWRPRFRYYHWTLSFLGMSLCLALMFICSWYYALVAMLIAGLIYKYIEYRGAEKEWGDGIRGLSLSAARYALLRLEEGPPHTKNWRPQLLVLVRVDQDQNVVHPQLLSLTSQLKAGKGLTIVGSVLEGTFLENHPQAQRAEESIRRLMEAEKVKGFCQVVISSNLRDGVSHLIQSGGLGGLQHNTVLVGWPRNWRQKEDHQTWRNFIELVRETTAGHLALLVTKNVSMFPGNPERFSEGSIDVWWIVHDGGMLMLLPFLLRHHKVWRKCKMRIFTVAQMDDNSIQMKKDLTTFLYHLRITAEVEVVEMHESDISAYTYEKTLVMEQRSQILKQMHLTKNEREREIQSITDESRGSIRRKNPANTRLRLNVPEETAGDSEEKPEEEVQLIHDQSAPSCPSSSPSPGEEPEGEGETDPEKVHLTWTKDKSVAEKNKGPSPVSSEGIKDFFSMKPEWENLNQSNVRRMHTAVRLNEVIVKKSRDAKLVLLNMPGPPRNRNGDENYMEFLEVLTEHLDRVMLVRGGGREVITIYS
As to the kind of experiment: FLIPR thallium (Tl+) flux assay in HEK-293 cells expressing KCC2. In kind it is cell-based. Conditions: saturating concentration of 3 μM, 1% BCD vehicle. As to the method:
A multi-tiered high-throughput screening assay was used, leveraging a proprietary library of 1.3 million small molecule compounds from AstraZeneca (Cambridge, UK) to identify chemical entities capable of activating KCC2. A single point concentration of 30 μM was used to identify potassium flux using an established thallium (TI+) influx FLIPR assay as the primary read out in HEK-293 cells overexpressing KCC2 (Cardarelli et al., Nat. Med. 23, 1394-1396 (2017); Conway et al., J Biol Chem 292, 21253-21263 (2017); Lee et al., 2022, supra).
Cell Culture and biotinylation. […]
FLIPR TI Flux assay. HEK-293 cells were washed with HBSS, and then incubated with loading buffer containing TI sensitive fluorescent dye (https://www.moleculardevices.com), 20 μM bumetanide 20 μM ouabain and 2.5 mM probenecid for 1 h at room temperature (RT) under control conditions or with drugs in the dark using a FlexStation 3 microplate reader (Molecular Devices) and imaged […] for 30 min. Stimulus buffer was added containing 5 mM K^+/0.5 mM Tl^+ and cells were imaged every 1.5 over a 190 second time course The initial rate Tl^+ uptake (Relative Fluorescence Units (RFU) per second) was determined following addition of the stimulus buffer as outlined previously (Conway et al., 2017, supra) (Lee et al., 2022, supra). […]

Test [2] concerns the target T1, KCC2. As to the kind of experiment: Cell surface biotinylation of KCC2 in HEK-293 cells. The following applies: 15 min. In kind it is cell-based. As to the method:
Cell Culture and biotinylation. HEK-293 cells were purchased from ATCC (CRL-1573) and transfected with human KCC2 and GFP expression plasmids using Lipofectamine 2000. Cells were utilized for experimentation 48-72 h following transfection. Cells were biotinylated at 4° C. using NHS-Biotin. Following lysis and purification on immobilized avidin beads, cell surface and total fractions were subject to immunoblotting as outlined previously (Conway et al., 2017, supra).
The reliability of the biotinylation procedure was assessed via immunoblotting with antibodies against the cytosolic protein actin. Actin was present in the total lysates but was absent from the surface fractions (FIG. 2C).

We go through one compound from patent US20250281499A1, “FUSED AMINO PYRIMIDINE COMPOUNDS FOR TREATMENT OF NEUROPATHIC AND NEURO-INFLAMMATORY PAIN” (Ovid Therapeutics Inc., priority 2024, published 2025).

Consider `C[C@@H]1CN(c2nc3c(c(Nc4ccc(C5CCCCC5)cc4)n2)COC3)CCO1` [Compound A, (R)—N-(4-cyclohexylphenyl)-2-(2-methylmorpholino)-5,7-dihydrofuro[3,4-d]pyrimidin-4-amine], for which the “maximum potentiation of KCC2” value at KCC2 [1] was 90%. Also, the entries for the “level of KCC2 on the plasma membrane (surface/total)” value at KCC2 [2] (0.3 μM) and at KCC2 [2] (3 μM) were 94.5 ±8.4 % of control and 104.7±8.4 % of control, respectively.
